According to patent US11111237B2, “Bicyclic compound and use thereof” (SK BIOPHARMACEUTICALS CO., LTD., priority 2019, dated 2021):
Counter-ions that a name gives are not always drawn.

target: PRMT5-MEP50 enzyme complex (Homo sapiens (Human), UniProt O14744); assay: PRMT5 enzyme activity in vitro assay (methylation of histone H4R3, ELISA absorbance at 450 nm); format: biochemical; details: SAM, histone H4 peptide, room temperature 2 hours, 8 points from 10 μM to 0.128 nM
Experimental: Method for Measuring Enzyme Activity
In vitro assay: PRMT5-MEP50 enzyme complex, cofactor S-adenosylmethionine (SAM) and histone H4 peptide were reacted in vitro, and methylation of arginine (H4R3)—which is the third amino acid of histone H4—was measured in order to measure the enzyme activity of PRMT5.
Reagents: PRMT5-MEP50 enzyme complex (Catalog No. 51045), blocking buffer (52100-B), histone methyltransferase reaction buffer 2 (4×HMT assay buffer 2, Catalog No. 52170), and primary antibody (primary antibody 4-3, Catalog No. 52150) were purchased from BPS Bioscience (USA). The histone H4 peptide (1-20 amino acids) was custom made by Komabiotech (Korea) and used. S-adenosylmethionine was purchased from NEB (New England Biolabs, USA, Catalog No. B9003S). Plates for coating histone H4 peptide, washing buffer and color development reagent were purchased from the following vendors: Plate (Immobilizer™-Amino Plate, NUNC, Denmark, Catalog No. 436023), carbonate-bicarbonate buffer (Sigma-Aldrich, USA, Catalog No. C3041), washing buffer (10×TBST, Biosesang, Korea, Catalog No. T2005), TMB ELISA substrate (Abcam, UK, Catalog No. ab210902), horseradish peroxidase (HRP)-conjugated antibody (Abcam, UK, Catalog No. ab6721).
Experimental procedure: The histone H4 peptide was diluted with carbonate-bicarbonate buffer and prepared to 100 μg/mL, and then dispensed onto the plate per 100 μL and reacted at 37° C. for 1 hour. PRMT5-MEP50 enzyme complex and S-adenosylmethionine were diluted with histone methyltransferase reaction buffer to prepare 5 μg/mL and 2 μM, respectively, and then 20 μL of PRMT5-MEP50 enzyme complex and 25 μL of S-adenosylmethionine were dispensed onto the plate prepared above. 5 μL of the compound diluted with 10% dimethyl sulfoxide solution was added thereto and reacted at room temperature for 2 hours (final volume=50 μL). The concentration of the compound was diluted 1:5 from 10 μM until the lowest concentration of 0.128 nM, and 8 points were used for the test. After preparing the primary antibody by diluting 1:2000 with blocking buffer, 100 μL was added to the plate and reacted at room temperature for 1 hour. After preparing horseradish peroxidase-conjugated antibody by diluting 1:10,000 with blocking buffer, 100 μL was added to the plate and reacted at room temperature for 1 hour. 100 μL of TMB substrate was added and reacted for 3 minutes at room temperature, and 100 μL of 1 N sulfuric acid was then added to terminate the reaction. Then, the absorbance at 450 nm was measured to calculate the IC50 value of the compound. (+++: 1 to 100 nM, ++: greater than 100 to 1,000 nM, +: greater than 1,000 to 10,000 nM)

Chain of PRMT5-MEP50 enzyme complex (O14744 2-637): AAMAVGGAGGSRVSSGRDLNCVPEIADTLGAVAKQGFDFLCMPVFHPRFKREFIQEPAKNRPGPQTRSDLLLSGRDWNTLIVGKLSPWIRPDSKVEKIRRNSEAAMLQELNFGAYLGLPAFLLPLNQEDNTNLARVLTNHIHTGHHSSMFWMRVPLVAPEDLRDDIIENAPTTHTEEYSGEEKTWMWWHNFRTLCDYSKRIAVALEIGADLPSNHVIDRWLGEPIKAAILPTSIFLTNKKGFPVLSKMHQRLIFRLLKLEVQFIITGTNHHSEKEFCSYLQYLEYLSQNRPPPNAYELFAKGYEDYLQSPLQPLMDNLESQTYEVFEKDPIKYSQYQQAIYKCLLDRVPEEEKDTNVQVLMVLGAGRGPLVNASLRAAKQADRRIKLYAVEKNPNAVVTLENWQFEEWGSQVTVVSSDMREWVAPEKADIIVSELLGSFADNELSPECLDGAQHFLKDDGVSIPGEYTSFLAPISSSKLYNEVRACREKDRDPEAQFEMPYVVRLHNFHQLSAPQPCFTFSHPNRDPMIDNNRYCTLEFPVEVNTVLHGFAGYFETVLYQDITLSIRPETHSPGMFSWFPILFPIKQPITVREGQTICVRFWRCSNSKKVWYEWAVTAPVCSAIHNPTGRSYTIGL
Chain of PRMT5-MEP50 enzyme complex (Q9BQA1 2-342 partner): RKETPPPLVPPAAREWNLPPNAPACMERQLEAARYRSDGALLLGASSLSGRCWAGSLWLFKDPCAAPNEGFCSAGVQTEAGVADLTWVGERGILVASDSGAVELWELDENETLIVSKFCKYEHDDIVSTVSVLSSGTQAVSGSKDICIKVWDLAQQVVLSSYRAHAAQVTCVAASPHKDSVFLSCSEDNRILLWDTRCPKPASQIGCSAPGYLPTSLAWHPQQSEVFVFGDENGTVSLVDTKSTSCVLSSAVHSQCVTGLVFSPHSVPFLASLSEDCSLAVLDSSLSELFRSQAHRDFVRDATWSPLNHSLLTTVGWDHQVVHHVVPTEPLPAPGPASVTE

Row | SMILES | IC50 [µM]
1 | CC(C)N1CCC[C@H]1COc1ccc2c(c1)OCCN(C[C@H](O)CN1CCc3ccccc3C1)C2=O [Example 101, 4-[(2R)-3-(3,4-dihydro-1H-isoquinolin-2-yl)-2-hydroxy-propyl]-8-[[(2S)-1-isopropylpyrrolidin-2-yl]methoxy]-2,3-dihydro-1,4-benzoxazepin-5-one] | 0.1 to 1
2 | CC1(C)CN(C[C@H](O)CN2CCc3ccccc3C2)C(=O)c2ccc(C(=O)N3C4CCC3COC4)cc2O1 [Example 203, 4-[(2R)-3-(3,4-dihydro-1H-isoquinolin-2-yl)-2-hydroxy-propyl]-2,2-dimethyl-8-(3-oxa-8-azabicyclo[3.2.1]octan-8-carbonyl)-3H-1,4-benzoxazepin-5-one] | 0.1 to 1
3 | C[C@@H]1CN(C[C@H](O)CN2CCc3ccccc3C2)C(=O)c2ccc(OC3CC4CCC(C3)N4CCO)cc2O1 (stereo partly shown) [Example 241] | 0.1 to 1
4 | CC1(C)CN(C[C@H](O)CN2CCc3ccccc3C2)C(=O)c2ccc(CN3CCCCC3)nc2O1 [Example 197, 4-[(2R)-3-(3,4-dihydro-1H-isoquinolin-2-yl)-2-hydroxy-propyl]-2,2-dimethyl-8-(1-piperidylmethyl)-3H-pyrido[3,2-f][1,4]oxazepin-5-one] | 0.1 to 1
5 | Cn1cc(-c2ccc3c(c2)OCCN(C[C@H](O)CN2CCc4ccccc4C2)C3=O)cn1 [Example 232, 4-[(2R)-3-(3,4-dihydro-1H-isoquinolin-2-yl)-2-hydroxy-propyl]-8-(1-methylpyrazol-4-yl)-2,3-dihydro-1,4-benzoxazepin-5-one] | 0.1 to 1
6 | CC(c1ccc2c(n1)OC(C)(C)CN(C[C@H](O)CN1CCc3ccccc3C1)C2=O)N1CCOCC1 (stereo partly drawn) [Example 246, 4-[(2R)-3-(3,4-dihydro-1H-isoquinolin-2-yl)-2-hydroxy-propyl]-2,2-dimethyl-8-(1-morpholinoethyl)-3H-pyrido[3,2-f][1,4]oxazepin-5-one] | 0.1 to 1
7 | O=C(c1ccc2c(c1)OCCN(C[C@H](O)CN1CCc3ccccc3C1)C2=O)N1CCC(C(F)(F)F)CC1 [Example 186, 4-[(2R)-3-(3,4-dihydro-1H-isoquinolin-2-yl)-2-hydroxy-propyl]-8-[4-(trifluoromethyl)piperidine-1-carbonyl]-2,3-dihydro-1,4-benzoxazepin-5-one] | 0.1 to 1
8 | CC(C)N1CC=C(c2ccc3c(c2)OCCN(C[C@H](O)CN2CCc4ccccc4C2)C3=O)CC1 [Example 19, 4-[(2R)-3-(3,4-dihydro-1H-isoquinolin-2-yl)-2-hydroxy-propyl]-8-(1-isopropyl-3,6-dihydro-2H-pyridin-4-yl)-2,3-dihydro-1,4-benzoxazepin-5-one] | 0.1 to 1
9 | Cc1c(-c2ccc3c(c2)OCCN(C[C@H](O)CN2CCc4ccccc4C2)C3=O)cnn1C [Example 233, 4-[(2R)-3-(3,4-dihydro-1H-isoquinolin-2-yl)-2-hydroxy-propyl]-8-(1,5-dimethylpyrazol-4-yl)-2,3-dihydro-1,4-benzoxazepin-5-one] | 0.1 to 1
10 | O=C1CCCN1CCOc1ccc2c(c1)OCCN(C[C@H](O)CN1CCc3ccccc3C1)C2=O [Example 74, 4-[(2R)-3-(3,4-dihydro-1H-isoquinolin-2-yl)-2-hydroxy-propyl]-8-[2-(2-oxopyrrolidin-1-yl)ethoxy]-2,3-dihydro-1,4-benzoxazepin-5-one] | 0.1 to 1
11 | CCN1CCN(C[C@H](O)CN2CCc3ccccc3C2)C(=O)c2ccc(Br)cc21 [Example 157, 8-bromo-4-[(2R)-3-(3,4-dihydro-1H-isoquinolin-2-yl)-2-hydroxy-propyl]-1-ethyl-2,3-dihydro-1,4-benzodiazepin-5-one] | 0.001 to 0.1
12 | O=C1c2ccc(O[C@@H]3CCN(CCO)C[C@H]3F)cc2OCCN1C[C@H](O)CN1CCc2ccccc2C1 [Example 253, dihydrochloride] | 0.1 to 1
13 | O=C1c2ccc(CN3CCCOCC3)cc2OCCN1C[C@H](O)CN1CCc2ccccc2C1 [Example 39, 4-[(2R)-3-(3,4-dihydro-1H-isoquinolin-2-yl)-2-hydroxy-propyl]-8-(1,4-oxazepan-4-ylmethyl)-2,3-dihydro-1,4-benzoxazepin-5-one] | 0.1 to 1
14 | C[C@@H]1CN(C[C@H](O)CN2CCc3ccccc3C2)C(=O)c2ccc(CN3CCC4(CC3)COC4)cc2O1 [Example 252, (2R)-4-[(2R)-3-(3,4-dihydro-1H-isoquinolin-2-yl)-2-hydroxypropyl]-2-methyl-8-(2-oxa-7-azaspiro[3.5]nonan-7-ylmethyl)-2,3-dihydro-1,4-benzoxazepin-5-one] | 0.1 to 1
15 | O=C1c2ccc(C(=O)N3C4CCC3COC4)cc2OCCN1C[C@H](O)CN1CCc2ccccc2C1 [Example 189, 4-[(2R)-3-(3,4-dihydro-1H-isoquinolin-2-yl)-2-hydroxy-propyl]-8-(3-oxa-8-azabicyclo[3.2.1]octan-8-carbonyl)-2,3-dihydro-1,4-benzoxazepin-5-one] | 0.1 to 1
16 | O=C1c2ccc(CN3CCCC(O)C3)cc2OCCN1C[C@H](O)CN1CCc2ccccc2C1 (stereo partly drawn) [Example 44, 4-[(2R)-3-(3,4-dihydro-1H-isoquinolin-2-yl)-2-hydroxy-propyl]-8-[(3-hydroxy-1-piperidyl)methyl]-2,3-dihydro-1,4-benzoxazepin-5-one] | 0.001 to 0.1

Results, then the compound that gave them:

Row | IC50 [µM] | SMILES
17 | 0.001 to 0.1 | CC(=O)N1CCC(Oc2ccc3c(c2)OC(C)(C)CN(C[C@H](O)CN2CCc4ccccc4C2)C3=O)CC1 [Example 180, 8-[(1-acetyl-4-piperidyl)oxy]-4-[(2R)-3-(3,4-dihydro-1H-isoquinolin-2-yl)-2-hydroxy-propyl]-2,2-dimethyl-3H-1,4-benzoxazepin-5-one]
18 | 0.1 to 1 | COC(=O)N1CC(Oc2ccc3c(c2)OCCN(C[C@H](O)CN2CCc4ccccc4C2)C3=O)C1 [Example 86, methyl 3-[[4-[(2R)-3-(3,4-dihydro-1H-isoquinolin-2-yl)-2-hydroxy-propyl]-5-oxo-2,3-dihydro-1,4-benzoxazepin-8-yl]oxy]azetidin-1-carboxylate]
19 | 0.001 to 0.1 | CC(=O)N1CC(Oc2ccc3c(c2)OC(C)(C)CN(C[C@H](O)CN2CCc4ccccc4C2)C3=O)C1 [Example 114, 8-(1-acetylazetidin-3-yl)oxy-4-[(2R)-3-(3,4-dihydro-1H-isoquinolin-2-yl)-2-hydroxy-propyl]-2,2-dimethyl-3H-1,4-benzoxazepin-5-one]
20 | 0.1 to 1 | CN1CCCC(Oc2ccc3c(c2)N(C)CCN(C[C@H](O)CN2CCc4ccccc4C2)C3=O)C1 (stereo partly drawn) [Example 130, 4-[(2R)-3-(3,4-dihydro-1H-isoquinolin-2-yl)-2-hydroxy-propyl]-1-methyl-8-[(1-methyl-3-piperidyl)oxy]-2,3-dihydro-1,4-benzodiazepin-5-one]
21 | 0.001 to 0.1 | O=C1c2ccc(Br)cc2OCCN1C[C@H](O)CN1CCc2ccccc2C1 [Example 151, 8-bromo-4-[(2R)-3-(3,4-dihydro-1H-isoquinolin-2-yl)-2-hydroxy-propyl]-2,3-dihydro-1,4-benzoxazepin-5-one]
22 | 0.001 to 0.1 | CC1(CN2CCC(Oc3ccc4c(c3)OCCN(C[C@H](O)CN3CCc5ccccc5C3)C4=O)CC2)COC1 [Example 165, 4-[(2R)-3-(3,4-dihydro-1H-isoquinolin-2-yl)-2-hydroxypropyl]-8-[[1-[(3-methyloxetan-3-yl)methyl]-4-piperidyl]oxy]-2,3-dihydro-1,4-benzoxazepin-5-one]
23 | 0.1 to 1 | CC1(C)CN(C[C@H](O)CN2CCc3ccccc3C2)C(=O)c2ccc(C(=O)N3CCN4CCCC4C3)cc2O1 (stereo partly drawn) [Example 210, 8-(3,4,6,7,8,8a-hexahydro-1H-pyrrolo[1,2-a]pyrazine-2-carbonyl)-4-[(2R)-3-(3,4-dihydro-1H-isoquinolin-2-yl)-2-hydroxy-propyl]-2,2-dimethyl-3H-1,4-benzoxazepin-5-one]
24 | 0.1 to 1 | CC(C)N1CC(Oc2ccc3c(c2)OCCN(C[C@H](O)CN2CCc4ccccc4C2)C3=O)C1 [Example 95, 4-[(2R)-3-(3,4-dihydro-1H-isoquinolin-2-yl)-2-hydroxy-propyl]-8-(1-isopropylazetidin-3-yl)oxy-2,3-dihydro-1,4-benzoxazepin-5-one]
25 | 0.1 to 1 | CC(=O)N1CC[C@@H](Oc2ccc3c(c2)N(C)CCN(C[C@H](O)CN2CCc4ccccc4C2)C3=O)C1 [Example 123, 8-[(3R)-1-acetylpyrrolidin-3-yl]oxy-4-[(2R)-3-(3,4-dihydro-1H-isoquinolin-2-yl)-2-hydroxy-propyl]-1-methyl-2,3-dihydro-1,4-benzodiazepin-5-one]
